Source: patent publication US8785459B2, “Quinazoline compounds as kinase inhibitors” (Development Center for Biotechnology, priority 2011, dated 2014)

What was measured:
B-Raf = B-Raf (Homo sapiens (Human), UniProt P15056); assay: Raf kinase assay (B-Raf), [33P] incorporation into MEK1(K97R); type: biochemical; conditions: for inhibition at 1 µM: 1.0 μM compound, read-out: B-Raf inhibition at 1.0 μM
Outline: (§1)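 Recombinant C-Raf (2 ng) or B-Raf or B-Raf V600E (5 ng each) phosphorylated 500 ng MEK1(K97R) with 8 μM ATP plus [33P]ATP, pH 7.5, 30 min at 30 °C. Filter-captured 33P counted. IC50 from 3-fold compound dilutions run in duplicate.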

A375 = assay: Anti-proliferative activity, CellTiter-96 assay, A375; type: cell-based; conditions: Homo sapiens, A-375, A375 cells, 72 hours incubation
Experimental: (§2) Antiproliferative Activity
(§3) The anti-proliferative activities of the compounds with formula (I) and formula (II) with respect to four human cancer cell lines (A549, A375, MDA-MB-231, and COLO205) were measured using the CellTiter™-96 assay kit (Promega) following the manufacturer's instructions. In brief, the cells were maintained in DMEM containing 10% FCS and incubated at 37° C. in 5% CO2 atmosphere. Cells were plated at a density of 2000 cells/well of a 96-well plate for 24 h, then treated with different concentrations of the compounds, and incubated for another 72 hours. At the end of the incubation, CellTiter™-96 Aqueous One Solution Reagent (Promega) was added and incubated for another 4.0 hours. Cell viability was determined by measuring absorbance at 490 nm using EMax® microplate reader (Molecular Devices). Data were processed and analyzed using GraphPad Prism version 4.

A549 = assay: Anti-proliferative activity, CellTiter-96 assay, A549; type: cell-based; conditions: Homo sapiens, A549 cells, 72 hours incubation
Experimental: as §2, §3

COLO205 = assay: Anti-proliferative activity, CellTiter-96 assay, COLO205; type: cell-based; conditions: Homo sapiens, COLO 205, COLO205 cells, 72 hours incubation
Experimental: as §2, §3

B-Raf (V600E) = B-Raf (V600E) (Homo sapiens (Human), UniProt P15056, V600E); assay: Raf kinase assay (B-Raf (V600E)), [33P] incorporation into MEK1(K97R); type: biochemical
Outline: as §1

MDA-MB-231 = assay: Anti-proliferative activity, CellTiter-96 assay, MDA-MB-231; type: cell-based; conditions: Homo sapiens, MDA-MB-231 cells, 72 hours incubation
Experimental: as §2, §3

C-Raf = C-Raf (Homo sapiens (Human), UniProt P04049); assay: Raf kinase assay (C-Raf), [33P] incorporation into MEK1(K97R); type: biochemical
Outline: as §1

Chain of B-Raf (P15056 whole entry): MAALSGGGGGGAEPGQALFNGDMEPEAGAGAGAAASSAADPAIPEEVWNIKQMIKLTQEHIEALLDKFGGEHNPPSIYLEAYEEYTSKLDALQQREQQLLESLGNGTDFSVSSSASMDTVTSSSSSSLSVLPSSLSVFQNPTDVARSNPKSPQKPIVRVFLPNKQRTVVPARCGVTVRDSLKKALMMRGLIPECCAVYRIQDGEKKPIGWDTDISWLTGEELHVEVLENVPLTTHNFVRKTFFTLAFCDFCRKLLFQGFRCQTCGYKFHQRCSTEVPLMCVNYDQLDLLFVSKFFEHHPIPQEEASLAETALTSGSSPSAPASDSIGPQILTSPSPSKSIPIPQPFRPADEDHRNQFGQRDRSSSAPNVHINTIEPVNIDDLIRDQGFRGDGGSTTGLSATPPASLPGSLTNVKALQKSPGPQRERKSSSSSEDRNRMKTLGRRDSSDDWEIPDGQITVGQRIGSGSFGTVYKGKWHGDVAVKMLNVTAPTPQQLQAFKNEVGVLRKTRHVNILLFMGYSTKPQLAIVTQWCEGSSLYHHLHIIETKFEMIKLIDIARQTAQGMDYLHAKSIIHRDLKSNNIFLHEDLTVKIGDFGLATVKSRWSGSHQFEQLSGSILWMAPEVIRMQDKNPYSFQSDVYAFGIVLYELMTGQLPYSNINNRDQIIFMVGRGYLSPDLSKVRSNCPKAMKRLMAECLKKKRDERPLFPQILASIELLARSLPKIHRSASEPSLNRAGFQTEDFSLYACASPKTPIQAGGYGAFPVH
Chain of C-Raf (P04049 whole entry): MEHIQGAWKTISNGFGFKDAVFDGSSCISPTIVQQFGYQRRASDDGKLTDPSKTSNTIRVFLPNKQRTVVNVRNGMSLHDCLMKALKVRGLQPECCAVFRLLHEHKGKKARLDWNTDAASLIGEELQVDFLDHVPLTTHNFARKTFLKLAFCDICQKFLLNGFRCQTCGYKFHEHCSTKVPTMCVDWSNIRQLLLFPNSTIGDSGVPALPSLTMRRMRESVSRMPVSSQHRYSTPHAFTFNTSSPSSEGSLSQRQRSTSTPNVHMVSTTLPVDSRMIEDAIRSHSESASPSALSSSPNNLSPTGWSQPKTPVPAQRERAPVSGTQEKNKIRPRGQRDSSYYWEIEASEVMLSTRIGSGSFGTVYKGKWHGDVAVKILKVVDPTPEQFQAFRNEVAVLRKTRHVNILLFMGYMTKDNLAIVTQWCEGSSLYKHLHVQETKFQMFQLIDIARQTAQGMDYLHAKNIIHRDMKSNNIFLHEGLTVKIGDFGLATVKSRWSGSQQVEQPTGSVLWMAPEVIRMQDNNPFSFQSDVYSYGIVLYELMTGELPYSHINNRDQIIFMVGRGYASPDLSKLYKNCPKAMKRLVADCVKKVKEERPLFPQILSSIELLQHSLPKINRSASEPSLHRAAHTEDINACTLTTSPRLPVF
Chain of B-Raf (V600E) (P15056 whole entry V600E): as the sequence (P15056 whole entry) above, with V600E counted along it

Row | IC50 (B-Raf) | inhibition at 1 µM (B-Raf) | IC50 (A375) | IC50 (A549) | IC50 (COLO205) | IC50 (B-Raf (V600E)) | IC50 (MDA-MB-231) | IC50 (C-Raf) | SMILES
1 | 21 nM | 95.8% | 1400 ± 400 nM | 1.78 ± 0.2 µM | 5.2 ± 0.2 µM | 23 nM | 5.5 ± 0.5 µM | 136 nM | COc1cc(-c2ccc3nccc(Nc4cccc(O)c4)c3c2)ccc1O [Compound 100, 4-(4-(3-hydroxyphenylamino)quinolin-6-yl)-2-methoxyphenol]
2 | 142 nM | 83.6% | 2900 ± 1600 nM | 2.7 ± 1.7 µM | 16.8 ± 9.3 µM | 162 nM | 2.4 ± 1.1 µM | 287 nM | COc1cc(-c2ccc3ncnc(Nc4cccc5[nH]nc(Cl)c45)c3c2)ccc1O [Compound 126, 4-(4-(3-chloro-1H-indazol-4-ylamino)quinazolin-6-yl)-2-methoxyphenol]
3 | 3.8 nM | 96.4% | 400 ± 100 nM | 0.9 ± 0.4 µM | 5.1 ± 1 µM | 7.1 nM | 1.2 ± 0.1 µM | 36.3 nM | COc1cc(-c2ccc3ncnc(Nc4cc(O)c(F)cc4F)c3c2)ccc1O [Compound 158, 2,4-difluoro-5-(6-(4-hydroxy-3-methoxyphenyl)quinazolin-4-ylamino)phenol]
4 | 1150 nM | 44.4% | 2700 ± 200 nM | 2.5 ± 0.6 µM | 11.8 ± 4.6 µM | 1020 nM | 4.1 ± 0.3 µM | 1450 nM | COc1cc(-c2ccc3ncnc(Nc4ccc(F)cc4)c3c2)ccc1O [Compound 15, 4-(4-(4-fluorophenylamino)quinazolin-6-yl)-2-methoxyphenol]
5 | 87 nM | 93.8% | > 50000 nM | > 50 µM | > 50 µM | 94 nM | > 50 µM | 781 nM | COc1cc(-c2cc3c(Nc4cccc(O)c4)ncnc3cc2OC)ccc1O [Compound 31, 4-(4-(3-hydroxyphenylamino)-7-methoxyquinazolin-6-yl)-2-methoxyphenol]
6 | 134 nM | 87% | > 50000 nM | > 50 µM | > 50 µM | 199 nM | > 50 µM | 294 nM | N#Cc1cccc(-c2ccc3ncnc(Nc4cccc5[nH]ncc45)c3c2)c1 [Compound 102, 3-(4-(1H-indazol-4-ylamino)quinazolin-6-yl)benzonitrile]
7 | 55.8 nM | 83.7% | 4900 ± 1700 nM | 7 ± 2.4 µM | 15.7 ± 4.1 µM | 76.6 nM | 11.5 ± 3.8 µM | 860 nM | COc1cc2ncnc(Nc3cccc(O)c3)c2cc1-c1ccc(N)cc1 [Compound 68, 3-(6-(4-aminophenyl)-7-methoxyquinazolin-4-ylamino)phenol]
8 | 121 nM | 86% | 1400 ± 100 nM | 1.6 ± 0.3 µM | 7.7 ± 0.3 µM | 157 nM | 1.6 ± 0.4 µM | 404 nM | COc1cc(-c2ccc3ncnc(Nc4cccc5[nH]ncc45)c3c2)ccc1O [Compound 51, 4-(4-(1H-indazol-4-ylamino)quinazolin-6-yl)-2-methoxyphenol]
9 | 134 nM | 88.2% | 8500 ± 1200 nM | 12.1 ± 3.2 µM | 7.3 ± 1 µM | 119 nM | 10.9 ± 1.4 µM | 277 nM | CS(=O)(=O)c1ccc(-c2ccc3nccc(Nc4cccc5[nH]ncc45)c3c2)cc1 [Compound 120, N-(1H-indazol-4-yl)-6-(4-(methylsulfonyl)phenyl)quinolin-4-amine]
10 | 172 nM | 83.1% | 11500 ± 1900 nM | 8.9 ± 1.3 µM | 11.5 ± 1.3 µM | 195 nM | 14.8 ± 0.5 µM | 757 nM | COc1cc(-c2ccc3ncnc(Nc4cccc5[nH]ncc45)c3c2)ccc1F [Compound 84, 6-(4-fluoro-3-methoxyphenyl)-N-(1H-indazol-4-yl)quinazolin-4-amine]
11 | 164 nM | 85.2% | 6600 nM | 3.2 µM | 8.9 µM | 211 nM | 4 ± 0.2 µM | 354 nM | COc1cc(-c2ccc3nccc(Nc4cccc5[nH]ncc45)c3c2)ccc1O [Compound 103, 4-(4-(1H-indazol-4-ylamino)quinolin-6-yl)-2-methoxyphenol]
12 | 62.4 nM | 91.9% | 6000 ± 300 nM | 11 ± 3.3 µM | 17.3 ± 1.9 µM | 105 nM | 15.6 ± 0.8 µM | 1230 nM | COc1ccc(-c2ccc3ncnc(Nc4cccc(O)c4)c3c2)cc1 [Compound 64, 3-(6-(4-methoxyphenyl)quinazolin-4-ylamino)phenol]
13 | 188 nM | 82.4% | 7300 ± 600 nM | 6.1 ± 0.6 µM | 9.6 ± 0.6 µM | 185 nM | 8.5 ± 1.4 µM | 409 nM | Oc1ccc(-c2ccc3nccc(Nc4cccc5[nH]ncc45)c3c2)cc1 [Compound 124, 4-(4-(1H-indazol-4-ylamino)quinolin-6-yl)phenol]
14 | 27.7 nM | 93.4% | 2300 ± 600 nM | 5.3 ± 1 µM | 7.1 ± 1.3 µM | 51.7 nM | 9.5 ± 1.3 µM | 300 nM | Oc1cccc(Nc2ncnc3ccc(-c4cccc(O)c4)cc23)c1 [Compound 63, 3-(6-(3-hydroxyphenyl)quinazolin-4-ylamino)phenol]
15 | 107 nM | 86.6% | 23700 ± 2400 nM | 23.5 ± 0.5 µM | 8.9 ± 0.1 µM | 114 nM | 13.6 ± 0.9 µM | 321 nM | NC(=O)c1cccc(-c2ccc3nccc(Nc4cccc5[nH]ncc45)c3c2)c1 [Compound 117, 3-(4-(1H-indazol-4-ylamino)quinolin-6-yl)benzamide]
16 | 2.9 nM | 94.6% | 1500 ± 100 nM | 2.4 ± 0.7 µM | 5.1 ± 1.4 µM | 4.5 nM | 2.1 ± 0.1 µM | 197 nM | COc1cc(-c2ccc3ncnc(Nc4ccc(F)c(O)c4F)c3c2)ccc1O [Compound 162, 2,6-difluoro-3-(6-(4-hydroxy-3-methoxyphenyl)quinazolin-4-ylamino)phenol]
17 | 57.3 nM | 92.4% | 1900 ± 300 nM | 1.6 ± 0.4 µM | 9.6 ± 3.8 µM | 81.7 nM | 2.8 ± 0.2 µM | 301 nM | COc1cc(-c2ccc3ncnc(Nc4cc(O)c(C)cc4F)c3c2)ccc1O [Compound 156, 4-fluoro-5-(6-(4-hydroxy-3-methoxyphenyl)quinazolin-4-ylamino)-2-methylphenol]
18 | 11.1 nM | 97.4% | 2300 ± 500 nM | 2.9 ± 0.4 µM | 7.9 ± 1.9 µM | 19.7 nM | 4.3 ± 0.6 µM | 69.2 nM | COc1cc(-c2ccc3ncnc(Nc4cc(O)c(Cl)cc4F)c3c2)ccc1O [Compound 159, 2-chloro-4-fluoro-5-(6-(4-hydroxy-3-methoxyphenyl)quinazolin-4-ylamino)phenol]
19 | 36.5 nM | 92.6% | 700 ± 100 nM | 0.6 ± 0.3 µM | 4.5 ± 0.6 µM | 64.7 nM | 0.9 ± 0.2 µM | 290 nM | COc1cc(-c2ccc3ncnc(Nc4cc(O)ccc4Cl)c3c2)ccc1O [Compound 59, 4-(4-(2-chloro-5-hydroxyphenylamino)quinazolin-6-yl)-2-methoxyphenol]
